Tests used:
[1] = for log P [a]: acidic range, pH 2.7, 0.1% aqueous formic acid/acetonitrile; for log P [a][d]: pH 2.7, major isomer; for log P [a][e]: pH 2.7, minor isomer
Experimental: (§1) Calibration was carried out using unbranched alkan-2-ones (having from 3 to 16 carbon atoms) with known log P values (the log P values were determined by the retention times using linear interpolation between two successive alkanones).

Phytophthora infestans = format: in vivo; conditions: tomato plants, protective, active compound concentration 500 ppm, evaluation 7 days after inoculation
[2] = pH 2.7, log P [a], acidic range, pH 2.7, 0.1% aqueous formic acid/acetonitrile

Experimental for physchem: as §1

In the case of `Cc1cc(C(F)(F)F)nn1CC(=O)N1CCC(c2nc(C#CC(=O)c3cccc4ccccc34)cs2)CC1` [Compound I-3], the “log P [a]” value [1] is reported as 4.25^[a].

`CC(C)(C)OC(=O)N1CCC(c2nc(C(O)CCc3ccccc3)cs2)CC1` (stereo not drawn) [XVI-1, tert-Butyl 4-[4-(1-hydroxy-3-phenylpropyl)-1,3-thiazol-2-yl]piperidine-1-carboxylate] showed a chromatographic logP (physchem; pH 2.7) of 3.79.

With `O=C(/C=C/c1csc(C2CCN(C(=O)Cn3nc(C(F)F)cc3C(F)F)CC2)n1)c1cccc(F)c1` [Compound I-41] the “log P [a]” value [1] was 3.48^[a] and the efficacy (Phytophthora infestans) was 95%.

Work on `CC(C)(C)OC(=O)N1CCC(c2nc(/C=C/C(=O)c3c(F)cccc3F)cs2)CC1` [IV-3, tert-Butyl 4-[4-[(1E)-3-(2,6-difluorophenyl)-3-oxoprop-1-en-1-yl]-1,3-thiazol-2-yl]piperidine-1-carboxylate] yielded a chromatographic logP (physchem; pH 2.7) of 4.3.

`CON(C)C(=O)c1csc(C2CCN(C(=O)OC(C)(C)C)CC2)n1` [Compound V-1, tert-Butyl 4-{4-[methoxy(methyl)carbamoyl]-1,3-thiazol-2-yl}piperidine-1-carboxylate] gave a chromatographic logP (physchem; pH 2.7) of 2.4.

With `COc1ccc(C(=O)/C=C/c2csc(C3CCN(C(=O)Cn4nc(C(F)F)cc4C(F)F)CC3)n2)c(F)c1` [Compound I-48] the “log P [a]” value [1] was 3.45^[a] and the efficacy (Phytophthora infestans) was 94%.

In the case of `Cc1cc(C(F)(F)F)nn1CC(=O)N1CCC(c2nc(C(=O)CCc3ccccc3)cs2)CC1` [Compound I-14, 1-[2-(1-{[5-Methyl-3-(trifluoromethyl)-1H-pyrazol-1-yl]acetyl}piperidin-4-yl)-1,3-thiazol-4-yl]-3-phenylpropan-1-one], the chromatographic logP (physchem; [2]) is reported as 3.64.

In the case of `O=C(/C=C/c1c(F)cccc1F)c1csc(C2CCN(C(=O)Cn3nc(C(F)F)cc3C(F)F)CC2)n1` [Compound I-62], the “log P [a]” value [1] is reported as 3.68^[a];.

With `O=C(/C=C/c1csc(C2CCN(C(=O)Cn3nc(C(F)F)cc3C(F)F)CC2)n1)c1ccc(F)cc1` [Compound I-40] the “log P [a]” value [1] was 3.43^[a].

For `Cc1cc(C(F)(F)F)nn1CC(=O)N1CCC(c2nc(C#CC(=O)c3ccco3)cs2)CC1` [Compound I-10], the “log P [a]” value [1] was 2.92^[a].

For `Cc1cc(C(F)(F)F)nn1CC(=O)N1CCC(c2nc(C(=O)CC(C)(C)c3ccccc3)cs2)CC1` [Compound I-15], the “log P [a]” value [1] was 4.08^[a].

With `Cc1cc(C(F)(F)F)nn1CC(=O)N1CCC(c2nc(C#CC(=O)c3cccs3)cs2)CC1` [Compound I-9] the “log P [a]” value [1] was 3.29^[a].

Molecule `O=C(CCc1ccccc1)c1csc(C2CCNCC2)n1` [II-2, 4-[4-(3-Phenylpropanoyl)-1,3-thiazol-2-yl]piperidinium chloride] has a chromatographic logP (physchem; pH 2.7) of 1.19.

In the case of `Cc1cc(C(F)(F)F)nn1CC(=O)N1CCC(c2nc(C#CC(=O)c3ccc(Cl)cc3Cl)cs2)CC1` [Compound I-6], the “log P [a]” value [1] is reported as 4.31^[a].

`CCOc1ccccc1C(=O)C#Cc1csc(C2CCN(C(=O)Cn3nc(C(F)(F)F)cc3C)CC2)n1` [Compound I-11, 1-(2-Ethoxyphenyl)-3-[2-(1-{[5-methyl-3-(trifluoromethyl)-1H-pyrazol-1-yl]acetyl}piperidin-4-yl)-1,3-thiazol-4-yl]prop-2-yn-1-one] gave a chromatographic logP (physchem; pH 2.7) of 3.78 and a chromatographic logP (physchem; [2]) of 3.76.

`C#Cc1csc(C2CCN(C(=O)OC(C)(C)C)CC2)n1` [VI-1, tert-Butyl 4-(4-ethynyl-1,3-thiazol-2-yl)piperidine-1-carboxylate] showed a chromatographic logP (physchem; pH 2.7) of 3.1.

In the case of `COc1ccccc1C(=O)C#Cc1csc(C2CCN(C(=O)Cn3nc(C(F)(F)F)cc3C)CC2)n1` [Compound I-2], the “log P [a]” value [1] is reported as 3.35^[a];.

In the case of `Cc1cc(C(F)(F)F)nn1CC(=O)N1CCC(c2nc(C(=O)/C=C/c3c(F)cccc3F)cs2)CC1` [Compound I-12, (2E)-3-(2,6-Difluorophenyl)-1-[2-(1-{[5-methyl-3-(trifluoromethyl)-1H-pyrazol-1-yl]acetyl}piperidin-4-yl)-1,3-thiazol-4-yl]prop-2-en-1-one], the chromatographic logP (physchem; [2]) is reported as 3.83.

For `CC(C)(C)OC(=O)N1CCC(c2nc(C(=O)CC3CCCCC3)cs2)CC1` [IV-1, tert-Butyl 4-[4-(cyclohexylacetyl)-1,3-thiazol-2-yl]piperidine-1-carboxylate], the chromatographic logP (physchem; pH 2.7) was 5.43.

With `Cc1cc(C(F)(F)F)nn1CC(=O)N1CCC(c2nc(C(Cl)=CC(=O)c3ccccc3)cs2)CC1` (mixture of isomers) [Compound I-26] the “log P [a]” value [1] was 4^[a].

In the case of `Cc1cccc(C)c1C(=O)/C=C/c1csc(C2CCN(C(=O)Cn3nc(C(F)F)cc3C(F)F)CC2)n1` [Compound I-63], the “log P [a]” value [1] is reported as 3.65^[a];.

With `C#CCOc1ccccc1C(C=Cc1csc(C2CCN(C(=O)Cn3nc(C(F)F)cc3C(F)F)CC2)n1)=NO` (mixture of isomers) [Compound I-64] the “log P [a][d]” value [1] was 3.08^[a][d]; and the “log P [a][e]” value [1] was 3.30^[a][e].

For `COc1ccc(C(=O)C#Cc2csc(C3CCN(C(=O)Cn4nc(C(F)(F)F)cc4C)CC3)n2)cc1` [Compound I-7], the “log P [a]” value [1] was 3.54^[a].

With `O=C(CC1CCCCC1)c1csc(C2CCNCC2)n1` [II-1, 4-[4-(Cyclohexylacetyl)-1,3-thiazol-2-yl]piperidinium chloride] the chromatographic logP (physchem; pH 2.7) was 1.35.

With `Cc1cc(C(F)(F)F)nn1CC(=O)N1CCC(c2nc(C#CC(=O)c3ccccc3Cl)cs2)CC1` [Compound I-5] the “log P [a]” value [1] was 3.79^[a].

Work on `CC(C)(C)OC(=O)N1CCC(c2nc(C(=O)CCc3ccccc3)cs2)CC1` [IV-2, tert-Butyl 4-[4-(3-phenylpropanoyl)-1,3-thiazol-2-yl]piperidine-1-carboxylate] yielded a chromatographic logP (physchem; pH 2.7) of 4.54.

In the case of `Cc1cc(C(F)(F)F)nn1CC(=O)N1CCC(c2nc(C(=O)Cc3ccccc3)cs2)CC1` [Compound I-16], the “log P [a]” value [1] is reported as 3.36^[a] and the efficacy (Phytophthora infestans) is reported as 80%.

In the case of `CO/N=C(/Cc1cccc(C)c1C)c1csc(C2CCN(C(=O)Cn3nc(C(F)F)cc3C(F)F)CC2)n1` [Compound I-61], the “log P [a]” value [1] is reported as 4.33^[a] and the efficacy (Phytophthora infestans) is reported as 95%.

For `Cc1cc(C(F)(F)F)nn1CC(=O)N1CCC(c2nc(CCC(=O)c3ccccc3Cl)cs2)CC1` [Compound I-21], the “log P [a]” value [1] was 3.6^[a];.

In the case of `Cc1cccc(CC(=O)c2csc(C3CCN(C(=O)Cn4nc(C(F)F)cc4C(F)F)CC3)n2)c1C` [Compound I-59], the “log P [a]” value [1] is reported as 3.71^[a].

With `Cc1cccc(C(=O)/C=C/c2csc(C3CCN(C(=O)Cn4nc(C(F)F)cc4C(F)F)CC3)n2)c1` [Compound I-38] the “log P [a]” value [1] was 3.64^[a]; and the efficacy (Phytophthora infestans) was 95%.

In the case of `Cc1cc(C(F)(F)F)nn1CC(=O)N1CCC(c2nc(C(=O)CC3CCCCC3)cs2)CC1` [Compound I-17], the “log P [a]” value [1] is reported as 4.13^[a];.

With `Cc1cc(C(F)(F)F)nn1CC(=O)N1CCC(c2nc(C#CC(=O)C(C)(C)C)cs2)CC1` [Compound I-8] the “log P [a]” value [1] was 3.68^[a].

For `Cc1cc(C(F)(F)F)nn1CC(=O)N1CCC(c2nc(C(=O)Cc3ccccc3Br)cs2)CC1` [Compound I-13], the “log P [a]” value [1] was 3.67^[a];.

With `COc1cccc(OC)c1C(=O)/C=C/c1csc(C2CCN(C(=O)Cn3nc(C(F)F)cc3C(F)F)CC2)n1` [Compound I-39] the “log P [a]” value [1] was 3.04^[a] and the efficacy (Phytophthora infestans) was 90%.

For `O=C(/C=C/c1csc(C2CCN(C(=O)Cn3nc(C(F)F)cc3C(F)F)CC2)n1)c1ccccc1` [Compound I-37], the “log P [a]” value [1] was 3.31^[a]; and the efficacy (Phytophthora infestans) was 95%.

In the case of `O=C(CC1CCCCC1)c1csc(C2CCN(C(=S)Cn3nc(C(F)F)cc3C(F)F)CC2)n1` [Compound I-58, 1-[2-(1-{2-[3,5-Bis(difluoromethyl)-1H-pyrazol-1-yl]ethanethioyl}piperidin-4-yl)-1,3-thiazol-4-yl]-2-cyclohexylethanone], the chromatographic logP (physchem; [2]) is reported as 4.63 and the chromatographic logP (physchem; pH 7.8) is reported as 4.56.

In the case of `Cc1cc(C(F)(F)F)nn1CC(=O)N1CCC(c2nc(C#CC(=O)C3CCCCC3)cs2)CC1` [Compound I-4], the “log P [a]” value [1] is reported as 4.15^[a].

In the case of `COc1ccccc1C(=O)CCc1csc(C2CCN(C(=O)Cn3nc(C(F)(F)F)cc3C)CC2)n1` [Compound I-19], the “log P [a]” value [1] is reported as 3.34^[a].

In the case of `Cc1cc(C(F)(F)F)nn1CC(=O)N1CCC(c2nc(C(=O)Cc3cccc4ccccc34)cs2)CC1` [Compound I-18], the “log P [a]” value [1] is reported as 3.87^[a].

With `CC(C)(C)C(=O)/C=C/c1csc(C2CCN(C(=O)Cn3nc(C(F)F)cc3C(F)F)CC2)n1` [Compound I-47] the “log P [a]” value [1] was 3.45^[a] and the efficacy (Phytophthora infestans) was 94%.

`CCOc1ccccc1C(=O)CCc1csc(C2CCN(C(=O)Cn3nc(C(F)(F)F)cc3C)CC2)n1` [Compound I-20, 1-(2-Ethoxyphenyl)-3-[2-(1-{[5-methyl-3-(trifluoromethyl)-1H-pyrazol-1-yl]acetyl}piperidin-4-yl)-1,3-thiazol-4-yl]propan-1-one] gave a chromatographic logP (physchem; [2]) of 3.7 and a chromatographic logP (physchem; pH 7.8) of 3.68.

For `CON=C(CC1CCCCC1)c1csc(C2CCN(C(=O)Cn3nc(C(F)F)cc3C(F)F)CC2)n1` [Compound I-60, 2-[3,5-Bis(difluoromethyl)-1H-pyrazol-1-yl]-1-{4-[4-(2-cyclohexyl-N-methoxyethanimidoyl)-1,3-thiazol-2-yl]piperidin-1-yl}ethanone], the efficacy (Phytophthora infestans) was 95% and the chromatographic logP (physchem; [2]) was 4.8.

`C#Cc1csc(C2CCN(C(=O)Cn3nc(C(F)(F)F)cc3C)CC2)n1` [XX-1, 1-[4-(4-Ethynyl-1,3-thiazol-2-yl)piperidin-1-yl]-2-[5-methyl-3-(trifluoromethyl)-1H-pyrazol-1-yl]ethanone] showed a chromatographic logP (physchem; pH 2.7) of 2.61.

With `Cc1cc(C(F)(F)F)nn1CC(=O)N1CCC(c2nc(C#CC(=O)c3ccccc3)cs2)CC1` [Compound I-1] the “log P [a]” value [1] was 3.58^[a].

For `COc1ccccc1C(=O)C=C(Cl)c1csc(C2CCN(C(=O)Cn3nc(C(F)(F)F)cc3C)CC2)n1` (mixture of isomers) [Compound I-65], the “log P [a][d]” value [1] was 3.96^[a][d];, the “log P [a][e]” value [1] was 3.79^[a][e] and the efficacy (Phytophthora infestans) was 93%.

In the case of `Cc1ccc(C)c(NC(=O)N2CCC(c3nc(/C=C/C(=O)c4c(F)cccc4F)cs3)CC2)c1` [Compound I-23], the “log P [a]” value [1] is reported as 3.56^[a] and the efficacy (Phytophthora infestans) is reported as 70%.

Reference: patent publication US9357779B2 (priority 2010, dated 2016)
